Structures can show the parent of a compound that is named as a salt.
How the values were obtained:
[1] = Subjective rating of drug suspensions immediately after preparation (ease of preparation, homogeneity, viscosity); assay type: physicochemical; conditions: for Homogeneity: scale 0-10, 0=drug settles completely and immediately, 10=consistently homogenous; for Viscosity: subjective scale 0-10, 0=water, 10=thick molasses; for phase separation of the suspending agent from the liquid phase: drug preparation in OO
Experimental: (§1) Suspensions of baclofen, bethanechol chloride, labetalol hydrochloride, verapamil hydrochloride, or ibuprofen were prepared in VE1 or OO. […] The wetted powder was incorporated into 50 ml VE1 or OO by geometric dilution and stored in individual non-opaque containers. […] The concentrations of the pharmaceutical compounds in suspension represent ‘typical’ prescribed preparations.
The suspensions were evaluated immediately after preparation with respect to ease of preparation, homogeneity, and viscosity by the pharmaceutical technician preparing the suspensions. The suspensions were rated on a subjective scale of 0-10: ease of preparation, 0=difficult, 10=very easy; homogeneity, 0=drug settles completely and immediately, 10=consistently homogenous in appearance along the vertical axis; viscosity, 0=water, 10=thick molasses.

[2] = Settling and resuspendability of drug suspensions after 7 days storage; assay type: physicochemical; conditions: for Settling: 7 days, dark, room temperature, scale 0-10, 10=none, 0=all at bottom; for Resuspendability: after 7 days, moderate shaking, scale 0-10, 10=perfectly homogenous
Experimental: as §1
The suspensions were stored in the dark at room temperature for 7 days and then settling of the drugs and resuspendability of sedimented drug in OO or VE1 was evaluated. Settling and resuspendability of the drugs was rated on a subjective scale of 0-10: settling (how much product apparent at bottom of container, 10=none, 0=all); resuspendability (how homogenous does the product appear after moderate shaking, 10=perfectly homogenous, 0=not homogenous (heterogeneous)). Resuspendability of sedimented ingredients was evaluated after evaluation of settling. The suspensions were shaken deliberately (stepwise), with frequent inspections of the bottom of the container.

[3] = drug suspension in OO, listed as ibuprofen
[4] = drug suspension in OO, hydrochloride
[5] = drug suspension in OO, listed as verapamil hydrochloride, hydrochloride
[6] = drug suspension in OO, listed as bethanechol chloride

| SMILES | Homogeneity ([1]; drug suspension in OO) | Viscosity ([1]; drug suspension in OO) | Homogeneity ([1]; drug suspension in VE1) | Viscosity ([1]; drug suspension in VE1) | Settling ([2]; drug suspension in OO) | Settling [2, 3] | Resuspendability ([2]; drug suspension in OO) | Resuspendability [2, 3] | Settling ([2]; drug suspension in VE1) | Resuspendability ([2]; drug suspension in VE1) | phase separation of the suspending agent from the liquid phase [1] | Settling [2, 4] | Settling ([2]; drug suspension in OO, listed as labetalol hydrochloride, hydrochloride) | Resuspendability [2, 4] | Resuspendability ([2]; drug suspension in OO, listed as Labetalol hydrochloride, hydrochloride) | Settling [2, 5] | Resuspendability [2, 5] | Settling [2, 6] | Resuspendability [2, 6] |
| --- | --- | --- | --- | --- | --- | --- | --- | --- | --- | --- | --- | --- | --- | --- | --- | --- | --- | --- | --- |
| CC(C)Cc1ccc(C(C)C(=O)O)cc1 (stereo not drawn) [Ibuprofen, ibuprofen] | 9 | 4 | 9 | 7 | 7 | minimal to moderate sedimentation | 9 | easily resuspended | 8 | 9 |  |  |  |  |  |  |  |  |  |
| NCC(CC(=O)O)c1ccc(Cl)cc1 (stereo not drawn) [Baclofen, baclofen] | 9 | 6 | 9 | 7 |  |  |  |  | 8 | 9 |  |  |  |  |  |  |  |  |  |
| CC(CCc1ccccc1)NCC(O)c1ccc(O)c(C(N)=O)c1 (stereo not drawn) [Labetalol Hydrochloride, labetalol hydrochloride] | 3 | 1 | 9 | 7 |  |  |  |  | 9 | 9 | phase separation | 2 | large portion | 3 | more difficult to resuspend |  |  |  |  |
| COc1ccc(CCN(C)CCCC(C#N)(c2ccc(OC)c(OC)c2)C(C)C)cc1OC (stereo not drawn) [Verapamil Hydrochloride, verapamil hydrochloride] | 8 | 2 | 9 | 7 |  |  |  |  | 7 | 9 | phase separation | 2 |  | 6 |  | large portion | more difficult to resuspend |  |  |
| CC(C[N+](C)(C)C)OC(N)=O (stereo not drawn) [Bethanechol Chloride, bethanechol chloride] | 9 | 5 | 9 | 7 | 6 |  | 9 |  | 8 | 9 |  |  |  |  |  |  |  | minimal to moderate sedimentation | easily resuspended |

Reference: patent US8986729B2, “Palatable suspending vehicle for pharmaceutical ingredients” (Fagron, Inc., priority 2004, dated 2015)
